The results in this text go back to patent US5686486A, “4-hydroxy-benzopyran-2-ones and 4-hydroxy-cycloalkyl[b]pyran-2-ones useful to treat retroviral infections” (priority 1995, dated 1997).

Test [1] addresses T1, HIV-1 protease (Human immunodeficiency virus type 1 group M subtype B, UniProt P04585). In words: biochemical. The conditions noted are these: for inhibition at 0.123 µM: read-out: HIV-1 Protease % Inhib, dose 0.123 uM; for inhibition at 0.37 µM: read-out: HIV-1 Protease % Inhib, dose 0.370 uM; for inhibition at 1.1 µM: read-out: HIV-1 Protease % Inhib, dose 1.100 uM; for inhibition at 3.3 µM: read-out: HIV-1 Protease % Inhib, dose 3.300 uM; for inhibition at 10 µM: read-out: HIV-1 Protease % Inhib, dose 10.000 uM; for inhibition at 30 µM: read-out: HIV-1 Protease % Inhib, dose 30.000 uM. In a few lines: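 Percent inhibition derived from fluorescent cleavage product separated by filtration after streptavidin-bead capture of intact biotin/FITC substrate. Reaction: enzyme (10 μl, 0.1 μM stock) with substrate (20 μl, 0.2 μM stock) and compound, 1 h at room temperature in dark, pH 5.5 acetate buffer with 1.0 M NaCl and 0.05% NP-40.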

The target in test [2] is T1, HIV-1 protease. In words: biochemical. The conditions noted are these: read-out: HIV-1 FITC KI. The procedure, abridged:
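Enzyme (40 nM stock) and substrate (200 μM stock) incubated with inhibitor, 24–48 two-fold serial concentrations, for 90 min at room temperature, then quenched with avidin beads. Nonlinear least-squares analysis gives Ki; a known-Ki inhibitor validates each run.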

As usually defined, the Ki is the equilibrium dissociation constant of an inhibitor or competing ligand from its target.

For the molecule `CCCCCCCCS(=O)(=O)Nc1cccc(C(c2c(O)c3c(oc2=O)CCCCCC3)C2CC2)c1` (stereo not shown) [Example 343, N-[3-[Cyclopropyl(5,6,7,8,9,10-hexahydro-4-hydroxy-2-oxo-2H-cycloocta[b]pyran-3-yl)methyl]phenyl]-1-octanesulfonamide], on HIV-1 protease [1], the inhibition at 0.123 µM is 39.4%, the inhibition at 0.37 µM is 75%, the inhibition at 1.1 µM was found to be 91.2% and the inhibition at 3.3 µM was 104%. Moreover, at HIV-1 protease [1], the inhibition at 10 µM was 112% and the inhibition at 30 µM amounted to 105%. Besides, the inhibitory constant (Ki) on HIV-1 protease [2] worked out at 6 nM.
Regarding `O=c1oc2c(c(O)c1C(c1cccc(NS(=O)(=O)CCc3ccccc3)c1)C1CC1)CCCCCC2` (stereo not shown) [Example 346, N-[3-[Cyclopropyl(5,6,7,8,9,10-hexahydro-4-hydroxy-2-oxo-2H-cycloocta[b]pyran-3-yl)methyl]phenyl]-benzeneethanesulfonamide], on HIV-1 protease [1], the inhibition at 0.123 µM was 75.1%, the inhibition at 0.37 µM was 92.5%, the inhibition at 1.1 µM was 97.3% and the inhibition at 3.3 µM was determined as 102%. Besides, at HIV-1 protease [1], the inhibition at 10 µM stood at 103% and the inhibition at 30 µM is 97%. For the same molecule, the Ki at HIV-1 protease [2] turned out to be 3.85 nM.
Consider `O=c1oc2c(c(O)c1C(c1cccc(NS(=O)(=O)c3ccc(-c4ccon4)s3)c1)C1CC1)CCCCCC2` (stereo not shown) [Example 347, N-[3-[Cyclopropyl(5,6,7,8,9,10-hexahyro-4-hydroxy-2-oxo-2H-cycloocta[b]pyran-3-yl)methyl]phenyl]-5-(3-isoxazolyl)-2-thiophenesulfonamide], for which, on HIV-1 protease [1], the inhibition at 0.123 µM turned out to be 79.8%, the inhibition at 0.37 µM stood at 92.2%, the inhibition at 1.1 µM came to 103% and the inhibition at 3.3 µM was determined as 100%. Further, at HIV-1 protease [1], the inhibition at 10 µM was 102% and the inhibition at 30 µM stood at 103%. Further, the Ki at HIV-1 protease [2] was found to be 2.5 nM.
For the molecule `O=c1oc2c(c(O)c1C(c1cccc(NS(=O)(=O)c3ccc(NO)cc3)c1)C1CC1)CCCCCC2` (stereo not shown) [Example 348 (Second Title Compound), N-[3-[cyclopropyl(5,6,7,8,9,10-hexahydro-4-hydroxy-2-oxo-2H-cycloocta[b]pyran-3-yl)methyl]phenyl]4-(hydroxyamino)-benzenesulfonamide], on HIV-1 protease [1], the inhibition at 0.123 µM amounted to 38.6%, the inhibition at 0.37 µM worked out at 81%, the inhibition at 1.1 µM stood at 102% and the inhibition at 3.3 µM is 109%. On HIV-1 protease [1], the inhibition at 10 µM worked out at 113% and the inhibition at 30 µM was 98.7%. Moreover, the Ki at HIV-1 protease [2] stood at 1.7 nM.
For `O=c1oc2c(c(O)c1C(c1cccc(NS(=O)(=O)c3ccc(NS(=O)(=O)c4ccccc4)cc3)c1)C1CC1)CCCCCC2` (stereo not shown) [Example 349, N-[3-[Cyclopropyl(5,6,7,8,9,10-hexahydro-4-hydroxy-2-oxo-2H-cycloocta[b]pyran-3-yl)methyl]phenyl]4-[(phenylsulfonyl)amino]-benzenesulfonamide], at HIV-1 protease [1], the inhibition at 0.37 µM turned out to be 38.4%, the inhibition at 1.1 µM came out at 69%, the inhibition at 3.3 µM is 86.4% and the inhibition at 10 µM came out at 96.7%. Besides, on HIV-1 protease [1], the inhibition at 30 µM is 88.5%. The inhibitory constant (Ki) at HIV-1 protease [2] was 33.8 nM.
For `O=c1oc2c(c(O)c1C(c1cccc(NS(=O)(=O)c3cccc(NS(=O)(=O)c4ccccc4)c3)c1)C1CC1)CCCCCC2` (stereo not shown) [Example 350, N-[3-[Cyclopropyl(5,6,7,8,9,10-hexahydro-4-hydroxy-2-oxo-2H-cycloocta[b]pyran-3-yl)methyl]phenyl]-3-[(phenylsulfonyl)amino]-benzenesulfonamide], on HIV-1 protease [1], the inhibition at 0.123 µM stood at 22.2%, the inhibition at 0.37 µM is 64.3%, the inhibition at 1.1 µM came to 82.2% and the inhibition at 3.3 µM is 98.3%. For the same molecule, on HIV-1 protease [1], the inhibition at 10 µM worked out at 102% and the inhibition at 30 µM turned out to be 101%. Moreover, on HIV-1 protease [2], the inhibition constant Ki was 6.6 nM.
Regarding `O=C(Nc1cccc(S(=O)(=O)Nc2cccc(C(c3c(O)c4c(oc3=O)CCCCCC4)C3CC3)c2)c1)c1ccccc1` (stereo not shown) [Example 351, N-[3-[[[3-[Cyclopropyl(5,6,7,8,9,10-hexahydro4-hydroxy-2-oxo-2H-cycloocta[b]pyran-3-yl)methyl]phenyl]amino]sulfonyl]phenyl]-benzamide], at HIV-1 protease [1], the inhibition at 0.123 µM came to 11.2%, the inhibition at 0.37 µM is 49.3%, the inhibition at 1.1 µM was 76.6% and the inhibition at 3.3 µM worked out at 93.9%. For the same molecule, at HIV-1 protease [1], the inhibition at 10 µM was 97.8% and the inhibition at 30 µM came to 95.8%. Besides, the Ki at HIV-1 protease [2] is 16.4 nM.
Turning to `CN(C)c1ccc(S(=O)(=O)Nc2cccc(C(c3c(O)c4c(oc3=O)CCCCCC4)C3CC3)c2)cc1` (stereo not shown) [Example 352, N-[3-[Cyclopropyl(5,6,7,8,9,10-hexahydro-4-hydroxy-2-oxo-2H-cycloocta[b]pyran-3-yl)methyl]phenyl]-4-(dimethylamino)-benzenesulfonamide], at HIV-1 protease [1], the inhibition at 0.123 µM is 49.7%, the inhibition at 0.37 µM was 78.5%, the inhibition at 1.1 µM is 97.9% and the inhibition at 3.3 µM stood at 104%. Besides, at HIV-1 protease [1], the inhibition at 10 µM stood at 102% and the inhibition at 30 µM amounted to 94.6%. Besides, the Ki at HIV-1 protease [2] was determined as 2.84 nM.
On to `Nc1cccc(S(=O)(=O)Nc2cccc(C(c3c(O)c4c(oc3=O)CCCCCC4)C3CC3)c2)c1` (stereo not shown) [Example 353 (First Title Compound), 3-Amino-N-[3-[cyclopropyl(5,6,7,8,9,10-hexahydro-4-hydroxy-2-oxo-2H-cycloocta[b]pyran-3-yl)methyl]phenyl]-benzenesulfonamide], for which, at HIV-1 protease [1], the inhibition at 0.123 µM was 48.6%, the inhibition at 0.37 µM stood at 83.1%, the inhibition at 1.1 µM stood at 92.7% and the inhibition at 3.3 µM was found to be 97.3%. Also, at HIV-1 protease [1], the inhibition at 10 µM worked out at 103% and the inhibition at 30 µM was 92.9%. Moreover, the Ki on HIV-1 protease [2] worked out at 2.25 nM.
For the molecule `O=c1oc2c(c(O)c1C(c1cccc(NS(=O)(=O)c3cccc(NO)c3)c1)C1CC1)CCCCCC2` (stereo not shown) [Example 353 (Second Title Compound), N-[3-[Cyclopropyl(5,6,7,8,9, 10-hexahydro-4-hydroxy-2-oxo-2H-cycloocta[b]pyran-3-yl)methyl]phenyl]-3-(hydroxyamino)-benzenesulfonamide], on HIV-1 protease [1], the inhibition at 0.123 µM came out at 61.4%, the inhibition at 0.37 µM amounted to 92.7%, the inhibition at 1.1 µM is 103% and the inhibition at 3.3 µM came out at 110%. At HIV-1 protease [1], the inhibition at 10 µM was found to be 113% and the inhibition at 30 µM worked out at 107%. For the same molecule, at HIV-1 protease [2], the Ki stood at 2.4 nM.
Take `COC(=O)c1cccc(S(=O)(=O)Nc2cccc(C(c3c(O)c4c(oc3=O)CCCCCC4)C3CC3)c2)c1` (stereo not shown) [Example 354, 3-[[[3-[Cyclopropyl(5,6,7,8,9,10-hexahydro-4-hydroxy-2-oxo-2H-cycloocta[b]pyran-3-yl)methyl]phenyl]amino]sulfonyl]-benzoic acid, methyl ester]: at HIV-1 protease [1], the inhibition at 0.123 µM is 71.4%, the inhibition at 0.37 µM was found to be 86.4%, the inhibition at 1.1 µM worked out at 96.1% and the inhibition at 3.3 µM worked out at 100%. Besides, on HIV-1 protease [1], the inhibition at 10 µM was determined as 103% and the inhibition at 30 µM amounted to 108%. Moreover, the Ki at HIV-1 protease [2] amounted to 1.45 nM.
On to `O=c1oc2c(c(O)c1C(c1cccc(NS(=O)(=O)c3cccc(NCCO)c3)c1)C1CC1)CCCCCC2` (stereo not shown) [Example 355 (First Title Compound), N-[3-[Cyclopropyl(5,6,7,8,9,10-hexahydro4-hydroxy-2-oxo-2H-cycloocta[b]pyran-3-yl)methyl]phenyl]-3-[(2-ethanol)amino]-benzenesulfonamide], for which, on HIV-1 protease [1], the inhibition at 0.123 µM is 117%, the inhibition at 0.37 µM worked out at 117%, the inhibition at 1.1 µM turned out to be 115% and the inhibition at 3.3 µM was 103%. Moreover, at HIV-1 protease [1], the inhibition at 10 µM was 72.6% and the inhibition at 30 µM worked out at 61.9%. Also, the inhibition constant (Ki) on HIV-1 protease [2] amounted to 2.14 nM.
For the molecule `O=c1oc2c(c(O)c1C(c1cccc(NS(=O)(=O)c3cccc(N(CCO)CCO)c3)c1)C1CC1)CCCCCC2` (stereo not shown) [Example 355 (Second Title Compound), N-[3-[Cyclopropyl(5,6,7,8,9,10-hexahydro-4-hydroxy-2-oxo-2H-cycloocta[b]pyran-3-yl)methyl]phenyl]-3-[(bis-(2-ethanol))amino]-benzenesulfonamide], at HIV-1 protease [1], the inhibition at 0.123 µM worked out at 112%, the inhibition at 0.37 µM was determined as 111%, the inhibition at 1.1 µM is 107% and the inhibition at 3.3 µM is 110%. Further, at HIV-1 protease [1], the inhibition at 10 µM was determined as 110% and the inhibition at 30 µM was found to be 108%. Moreover, at HIV-1 protease [2], the Ki worked out at 1.06 nM.
As to `O=c1oc2c(c(O)c1C(c1cccc(NS(=O)(=O)c3cccc(CO)c3)c1)C1CC1)CCCCCC2` (stereo not shown) [Example 356, N-[3-[Cyclopropyl(5,6,7,8,9,10-hexahydro-4-hydroxy-2-oxo-2H-cycloocta[b]pyran-3-yl)methyl]phenyl]-3-[methanol]-benzenesulfonamide], on HIV-1 protease [1], the inhibition at 0.123 µM was 97.7%, the inhibition at 0.37 µM is 97.2%, the inhibition at 1.1 µM was 97.9% and the inhibition at 3.3 µM came out at 101%. For the same molecule, on HIV-1 protease [1], the inhibition at 10 µM was 102% and the inhibition at 30 µM was found to be 100%. For the same molecule, at HIV-1 protease [2], the Ki amounted to 1.32 nM.
